Target: PIM1 (Homo sapiens (Human), UniProt P11309)
Test: biochemical
Format: biochemical
Conditions: not given

Sequence of PIM1 (P11309 whole entry): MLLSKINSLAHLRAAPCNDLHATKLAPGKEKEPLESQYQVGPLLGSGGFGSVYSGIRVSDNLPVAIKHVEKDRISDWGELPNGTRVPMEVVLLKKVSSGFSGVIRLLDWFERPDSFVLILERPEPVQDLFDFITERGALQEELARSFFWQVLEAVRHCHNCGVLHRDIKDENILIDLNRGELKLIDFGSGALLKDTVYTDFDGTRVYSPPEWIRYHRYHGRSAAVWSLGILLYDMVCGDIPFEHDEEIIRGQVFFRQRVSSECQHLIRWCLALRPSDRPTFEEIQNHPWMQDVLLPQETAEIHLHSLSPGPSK

| Ki | Compound |
| --- | --- |
| 37 pM | Cn1ncc(NC(=O)c2csc(-c3c(F)cc(C(O)C4CC4)cc3F)n2)c1[C@@H]1CC[C@@H](N)[C@H](F)CO1 (stereo partly drawn) [Example 275, N-(5-((2S,5R,6S)-5-amino-6-fluorooxepan-2-yl)-1-methyl-1H-pyrazol-4-yl)-2-(4-(cyclopropyl(hydroxy)methyl)-2,6-difluorophenyl)thiazole-4-carboxamide] |

Same assay, conditions: 20 pM PIM1, 1 μM FAM-peptide, 10 μM ATP, 90 minutes at room temperature; read-out: PIM1 LC3K (KI)

| Compound | Ki |
| --- | --- |
| CO[C@H]1CO[C@H](c2c(NC(=O)c3csc(-c4c(F)ccc(F)c4F)n3)cnn2C)CC[C@H]1N [Example 258, N-(5-((2S,5R,6R)-5-amino-6-methoxyoxepan-2-yl)-1-methyl-1H-pyrazol-4-yl)-2-(2,3,6-trifluorophenyl)thiazole-4-carboxamide] | 145 pM |
| CO[C@H]1CO[C@H](c2c(NC(=O)c3nc(-c4cc(F)cc(F)c4F)sc3N)cnn2C)CC[C@H]1N [Example 263, 5-amino-N-(5-((2S,5R,6R)-5-amino-6-methoxyoxepan-2-yl)-1-methyl-1H-pyrazol-4-yl)-2-(2,3,5-trifluorophenyl)thiazole-4-carboxamide] | 127 pM |
| COc1cc(F)c(-c2nc(C(=O)Nc3cnn(C)c3[C@@H]3CC[C@@H](N)[C@@H](OC)CO3)cs2)c(F)c1 [Example 265, N-(5-((2S,5R,6R)-5-amino-6-methoxyoxepan-2-yl)-1-methyl-1H-pyrazol-4-yl)-2-(2,6-difluoro-4-methoxyphenyl)thiazole-4-carboxamide] | 34 pM |
| Cn1ncc(NC(=O)c2nc(-c3ccccc3OC(F)(F)F)sc2N)c1[C@@H]1CC[C@@H](N)[C@@H](F)CO1 [Example 266, 5-amino-N-(5-((2S,5R,6R)-5-amino-6-fluorooxepan-2-yl)-1-methyl-1H-pyrazol-4-yl)-2-(2-(trifluoromethoxy)phenyl)thiazole-4-carboxamide] | 155 pM |
| Cn1ncc(NC(=O)c2nc(-c3cccc(F)c3C(F)(F)F)sc2N)c1[C@@H]1CC[C@@H](N)[C@@H](F)CO1 [Example 267, 5-amino-N-(5-((2S,5R,6R)-5-amino-6-fluorooxepan-2-yl)-1-methyl-1H-pyrazol-4-yl)-2-(3-fluoro-2-(trifluoromethyl)phenyl)thiazole-4-carboxamide] | 98 pM |
| Cn1ncc(NC(=O)c2nc(-c3ccccc3C(F)(F)F)sc2N)c1[C@@H]1CC[C@@H](N)[C@@H](F)CO1 [Example 270, 5-amino-N-(5-((2S,5R,6R)-5-amino-6-fluorooxepan-2-yl)-1-methyl-1H-pyrazol-4-yl)-2-(2-(trifluoromethyl)phenyl)thiazole-4-carboxamide] | 53 pM |
| Cn1ncc(NC(=O)c2nc(C3=CCCC3)sc2N)c1[C@@H]1CC[C@@H](N)[C@@H](F)CO1 [Example 271, 5-amino-N-(5-((2S,5R,6R)-5-amino-6-fluorooxepan-2-yl)-1-methyl-1H-pyrazol-4-yl)-2-(cyclopent-1-en-1-yl)thiazole-4-carboxamide] | 62 pM |
| Cn1ncc(NC(=O)c2nc(C3CCCC3)sc2N)c1[C@@H]1CC[C@@H](N)[C@@H](F)CO1 [Example 272, 5-amino-N-(5-((2S,5R,6R)-5-amino-6-fluorooxepan-2-yl)-1-methyl-1H-pyrazol-4-yl)-2-cyclopentylthiazole-4-carboxamide] | 992 pM |
| COC(c1cc(F)c(-c2nc(C(=O)Nc3cnn(C)c3[C@@H]3CC[C@@H](N)[C@H](F)CO3)cs2)c(F)c1)C1CC1 (stereo partly drawn) [Example 276, N-(5-((2S,5R,6S)-5-amino-6-fluorooxepan-2-yl)-1-methyl-1H-pyrazol-4-yl)-2-(4-(cyclopropyl(methoxy)methyl)-2,6-difluorophenyl)thiazole-4-carboxamide] | 84 pM |
| COc1ccc(F)c(F)c1-c1nc(C(=O)Nc2cnn(C)c2[C@@H]2CC[C@@H](N)[C@@H](F)CO2)c(N)s1 [Example 277, 5-amino-N-(5-((2S,5R,6R)-5-amino-6-fluorooxepan-2-yl)-1-methyl-1H-pyrazol-4-yl)-2-(2,3-difluoro-6-methoxyphenyl)thiazole-4-carboxamide] | 143 pM |

Second part, the compound after the results:

| Ki | Compound |
| --- | --- |
| 52 pM | CO[C@H]1CO[C@H](c2c(NC(=O)c3nc(-c4c(C)cccc4F)sc3N)cnn2C)CC[C@H]1N [Example 269, 5-amino-N-(5-((2S,5R,6R)-5-amino-6-methoxyoxepan-2-yl)-1-methyl-1H-pyrazol-4-yl)-2-(2-fluoro-6-methylphenyl)thiazole-4-carboxamide] |
| 37 pM | Cn1ncc(NC(=O)c2nc(-c3cc(F)cc(F)c3F)sc2N)c1[C@@H]1CC[C@@H](N)[C@@H](F)CO1 [Example 261, 5-amino-N-(5-((2S,5R,6R)-5-amino-6-fluorooxepan-2-yl)-1-methyl-1H-pyrazol-4-yl)-2-(2,3,5-trifluorophenyl)thiazole-4-carboxamide] |
| 28 pM | Cn1ncc(NC(=O)c2nc(-c3cccc(C(F)(F)F)c3F)sc2N)c1[C@@H]1CC[C@@H](N)[C@@H](F)CO1 [Example 268, 5-amino-N-(5-((2S,5R,6R)-5-amino-6-fluorooxepan-2-yl)-1-methyl-1H-pyrazol-4-yl)-2-(2-fluoro-3-(trifluoromethyl)phenyl)thiazole-4-carboxamide] |
| 25 pM | Cc1c(-c2nc(C(=O)Nc3cnn(C)c3[C@@H]3CC[C@@H](N)[C@H](F)CO3)c(N)s2)cnn1C [Example 257, 5-amino-N-(5-((2S,5R,6S)-5-amino-6-fluorooxepan-2-yl)-1-methyl-1H-pyrazol-4-yl)-2-(1,5-dimethyl-1H-pyrazol-4-yl)thiazole-4-carboxamide] |
| 20 pM | CO[C@H]1CO[C@H](c2c(NC(=O)c3nc(-c4cc(C)ccc4F)sc3N)cnn2C)CC[C@H]1N [Example 264, 5-amino-N-(5-((2S,5R,6R)-5-amino-6-methoxyoxepan-2-yl)-1-methyl-1H-pyrazol-4-yl)-2-(2-fluoro-5-methylphenyl)thiazole-4-carboxamide] |
| 20 pM | Cc1ccc(F)c(-c2nc(C(=O)Nc3cnn(C)c3[C@@H]3CC[C@@H](N)[C@@H](F)CO3)c(N)s2)c1 [Example 274, 5-amino-N-(5-((2S,5R,6R)-5-amino-6-fluorooxepan-2-yl)-1-methyl-1H-pyrazol-4-yl)-2-(2-fluoro-5-methylphenyl)thiazole-4-carboxamide] |
| 10 pM | Cn1ncc(NC(=O)c2nc(-c3ccc(C(F)(F)F)cc3F)sc2N)c1[C@@H]1CC[C@@H](N)[C@@H](F)CO1 [Example 259, 5-amino-N-(5-((2S,5R,6R)-5-amino-6-fluorooxepan-2-yl)-1-methyl-1H-pyrazol-4-yl)-2-(2-fluoro-4-(trifluoromethyl)phenyl)thiazole-4-carboxamide] |
| 10 pM | CO[C@H]1CO[C@H](c2c(NC(=O)c3nc(-c4c(F)ccc(F)c4F)sc3N)cnn2C)CC[C@H]1N [Example 262, 5-amino-N-(5-((2S,5R,6R)-5-amino-6-methoxyoxepan-2-yl)-1-methyl-1H-pyrazol-4-yl)-2-(2,3,6-trifluorophenyl)thiazole-4-carboxamide] |
| 7 pM | Cc1cccc(F)c1-c1nc(C(=O)Nc2cnn(C)c2[C@@H]2CC[C@@H](N)[C@@H](F)CO2)c(N)s1 [Example 273, 5-amino-N-(5-((2S,5R,6R)-5-amino-6-fluorooxepan-2-yl)-1-methyl-1H-pyrazol-4-yl)-2-(2-fluoro-6-methylphenyl)thiazole-4-carboxamide] |
| 4 pM | Cn1ncc(NC(=O)c2nc(-c3c(F)ccc(F)c3F)sc2N)c1[C@@H]1CC[C@@H](N)[C@@H](F)CO1 [Example 260, 5-amino-N-(5-((2S,5R,6R)-5-amino-6-fluorooxepan-2-yl)-1-methyl-1H-pyrazol-4-yl)-2-(2,3,6-trifluorophenyl)thiazole-4-carboxamide] |
